Results taken from the supplement of paper PMC10307832.

Tests used:
Assay in all cases: relative viability (nuclei count vs DMSO), 5 days (fraction); higher = more cells survive
HCC-366 = tested on: HCC-366
How it was run: (§1)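 Lung cancer cell lines in 1536-well plates were dosed by pin tool the day after seeding, either with one drug alone or with a fixed anchor-drug dose plus five library-drug doses (not always all listed) in √10 steps. After 5 days, cells were fixed and their nuclei stained in one step (final 0.05% Triton X-100, 1% formaldehyde, 1 ug/ml Hoechst), then counted on 4× images. Relative viability is the nuclei count in treated wells divided by that in vehicle wells. Values are medians of duplicate plates.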

LK-2 = tested on: LK-2
How it was run: as §1

HARA = tested on: HARA
How it was run: as §1

NCI-H441 = tested on: NCI-H441
How it was run: as §1

CAL-12T = tested on: CAL-12T
How it was run: as §1

EMC-BAC-2 = tested on: EMC-BAC-2
How it was run: as §1

NCI-H1437 = tested on: NCI-H1437
How it was run: as §1

UMC-11 = tested on: UMC-11
How it was run: as §1

HOP-62 = tested on: HOP-62
How it was run: as §1

NCI-H3122 = tested on: NCI-H3122
How it was run: as §1

NCI-H2347 = tested on: NCI-H2347
How it was run: as §1

NCI-H596 = tested on: NCI-H596
How it was run: as §1

NCI-H1734 = tested on: NCI-H1734
How it was run: as §1

NCI-H727 = tested on: NCI-H727
How it was run: as §1

COR-L23 = tested on: COR-L23
How it was run: as §1

NCI-H1651 = tested on: NCI-H1651
How it was run: as §1

RERF-LC-KJ = tested on: RERF-LC-KJ
How it was run: as §1

NCI-H1650 = tested on: NCI-H1650
How it was run: as §1

PC-3 [JPC-3] = tested on: PC-3 [JPC-3]
How it was run: as §1

NCI-H1755 = tested on: NCI-H1755
How it was run: as §1

SK-LU-1 = tested on: SK-LU-1
How it was run: as §1

For `Cc1cn(-c2cc(NC(=O)c3ccc(C)c(Nc4nccc(-c5cccnc5)n4)c3)cc(C(F)(F)F)c2)cn1` [Nilotinib] + CC(=O)Nc1cccc(-n2c(=O)n(C3CC3)c(=O)c3c(Nc4ccc(I)cc4F)n(C)c(=O)c(C)c32)c1 [Trametinib] (partner 0.02 µM), the relative viability (HCC-366; first compound 0.001 µM) was 0.35, the relative viability (HCC-366; first compound 0.003162 µM) was 0.361 and the relative viability (HCC-366; first compound 0.01 µM) was 0.327. For the same compound, the relative viability (HCC-366; first compound 0.03162 µM) was 0.243, the relative viability (HCC-366; first compound 0.1 µM) was 0.145 and the relative viability (LK-2; first compound 0.001 µM) was 0.514. For the same compound, the relative viability (LK-2; first compound 0.003162 µM) was 0.515, the relative viability (LK-2; first compound 0.01 µM) was 0.687 and the relative viability (LK-2; first compound 0.03162 µM) was 0.46. It also gave a relative viability (LK-2; first compound 0.1 µM) of 0.608, a relative viability (HARA; first compound 0.001 µM) of 0.43 and a relative viability (HARA; first compound 0.003162 µM) of 0.468. The relative viability (HARA; first compound 0.01 µM) was 0.522, the relative viability (HARA; first compound 0.03162 µM) was 0.402 and the relative viability (HARA; first compound 0.1 µM) was 0.289. The relative viability (NCI-H441; first compound 0.001 µM) was 0.437, the relative viability (NCI-H441; first compound 0.003162 µM) was 0.569 and the relative viability (NCI-H441; first compound 0.01 µM) was 0.468. It also gave a relative viability (NCI-H441; first compound 0.03162 µM) of 0.299, a relative viability (NCI-H441; first compound 0.1 µM) of 0.37 and a relative viability (CAL-12T; first compound 0.001 µM) of 0.289. The relative viability (CAL-12T; first compound 0.003162 µM) was 0.34, the relative viability (CAL-12T; first compound 0.01 µM) was 0.261 and the relative viability (CAL-12T; first compound 0.03162 µM) was 0.283. The relative viability (CAL-12T; first compound 0.1 µM) was 0.249, the relative viability (EMC-BAC-2; first compound 0.001 µM) was 0.874 and the relative viability (EMC-BAC-2; first compound 0.003162 µM) was 0.697. For the same compound, the relative viability (EMC-BAC-2; first compound 0.01 µM) was 0.849, the relative viability (EMC-BAC-2; first compound 0.03162 µM) was 0.604 and the relative viability (EMC-BAC-2; first compound 0.1 µM) was 0.65. The relative viability (NCI-H1437; first compound 0.001 µM) was 0.445, the relative viability (NCI-H1437; first compound 0.003162 µM) was 0.541 and the relative viability (NCI-H1437; first compound 0.01 µM) was 0.631. The relative viability (NCI-H1437; first compound 0.03162 µM) was 0.382, the relative viability (NCI-H1437; first compound 0.1 µM) was 0.429 and the relative viability (UMC-11; first compound 0.001 µM) was 0.635. For the same compound, the relative viability (UMC-11; first compound 0.003162 µM) was 0.801, the relative viability (UMC-11; first compound 0.01 µM) was 0.742 and the relative viability (UMC-11; first compound 0.03162 µM) was 0.446. For the same compound, the relative viability (UMC-11; first compound 0.1 µM) was 0.317, the relative viability (HOP-62; first compound 0.001 µM) was 0.387 and the relative viability (HOP-62; first compound 0.003162 µM) was 0.364. It also gave a relative viability (HOP-62; first compound 0.1 µM) of 0.277, a relative viability (NCI-H3122; first compound 0.001 µM) of 0.249 and a relative viability (NCI-H3122; first compound 0.003162 µM) of 0.303. It also gave a relative viability (NCI-H3122; first compound 0.03162 µM) of 0.157, a relative viability (NCI-H3122; first compound 0.1 µM) of 0.158 and a relative viability (NCI-H2347; first compound 0.001 µM) of 0.267. For the same compound, the relative viability (NCI-H2347; first compound 0.003162 µM) was 0.23, the relative viability (NCI-H2347; first compound 0.01 µM) was 0.234 and the relative viability (NCI-H2347; first compound 0.03162 µM) was 0.268. For the same compound, the relative viability (NCI-H2347; first compound 0.1 µM) was 0.271, the relative viability (NCI-H596; first compound 0.001 µM) was 0.67 and the relative viability (NCI-H596; first compound 0.003162 µM) was 0.883. The relative viability (NCI-H596; first compound 0.01 µM) was 0.905, the relative viability (NCI-H596; first compound 0.03162 µM) was 0.668 and the relative viability (NCI-H596; first compound 0.1 µM) was 0.712. The relative viability (NCI-H1734; first compound 0.001 µM) was 0.57, the relative viability (NCI-H1734; first compound 0.003162 µM) was 0.664 and the relative viability (NCI-H1734; first compound 0.01 µM) was 0.547. It also gave a relative viability (NCI-H1734; first compound 0.03162 µM) of 0.345, a relative viability (NCI-H1734; first compound 0.1 µM) of 0.349 and a relative viability (NCI-H727; first compound 0.001 µM) of 0.405. For the same compound, the relative viability (NCI-H727; first compound 0.003162 µM) was 0.388, the relative viability (NCI-H727; first compound 0.01 µM) was 0.355 and the relative viability (NCI-H727; first compound 0.03162 µM) was 0.368. The relative viability (NCI-H727; first compound 0.1 µM) was 0.345, the relative viability (COR-L23; first compound 0.001 µM) was 0.472 and the relative viability (COR-L23; first compound 0.003162 µM) was 0.419. For the same compound, the relative viability (COR-L23; first compound 0.01 µM) was 0.384, the relative viability (COR-L23; first compound 0.03162 µM) was 0.283 and the relative viability (COR-L23; first compound 0.1 µM) was 0.266. For the same compound, the relative viability (NCI-H1651; first compound 0.001 µM) was 0.828, the relative viability (NCI-H1651; first compound 0.003162 µM) was 0.916 and the relative viability (NCI-H1651; first compound 0.01 µM) was 0.951. The relative viability (NCI-H1651; first compound 0.03162 µM) was 0.761, the relative viability (NCI-H1651; first compound 0.1 µM) was 0.851 and the relative viability (RERF-LC-KJ; first compound 0.001 µM) was 0.79. It also gave a relative viability (RERF-LC-KJ; first compound 0.003162 µM) of 0.985, a relative viability (RERF-LC-KJ; first compound 0.01 µM) of 0.985 and a relative viability (RERF-LC-KJ; first compound 0.03162 µM) of 0.764. The relative viability (RERF-LC-KJ; first compound 0.1 µM) was 0.811, the relative viability (NCI-H1650; first compound 0.001 µM) was 0.608 and the relative viability (NCI-H1650; first compound 0.003162 µM) was 0.735. For the same compound, the relative viability (NCI-H1650; first compound 0.01 µM) was 0.531, the relative viability (NCI-H1650; first compound 0.03162 µM) was 0.471 and the relative viability (NCI-H1650; first compound 0.1 µM) was 0.327. It also gave a relative viability (PC-3 [JPC-3]; first compound 0.001 µM) of 0.847, a relative viability (PC-3 [JPC-3]; first compound 0.01 µM) of 0.7 and a relative viability (PC-3 [JPC-3]; first compound 0.03162 µM) of 0.523. The relative viability (PC-3 [JPC-3]; first compound 0.1 µM) was 0.591, the relative viability (NCI-H1755; first compound 0.001 µM) was 0.745 and the relative viability (NCI-H1755; first compound 0.003162 µM) was 0.806. The relative viability (NCI-H1755; first compound 0.01 µM) was 0.699, the relative viability (NCI-H1755; first compound 0.03162 µM) was 0.64 and the relative viability (NCI-H1755; first compound 0.1 µM) was 0.556. For the same compound, the relative viability (SK-LU-1; first compound 0.001 µM) was 0.436, the relative viability (SK-LU-1; first compound 0.003162 µM) was 0.475 and the relative viability (SK-LU-1; first compound 0.01 µM) was 0.371. The relative viability (SK-LU-1; first compound 0.03162 µM) was 0.361 and the relative viability (SK-LU-1; first compound 0.1 µM) was 0.385.
